According to patent US9708314B2, “Heterocyclic amide compound” (NISSAN CHEMICAL INDUSTRIES, LTD., priority 2013, dated 2017):

Columns and labels:
Format in all cases: in vivo
[1] = system: transplanted Oryza sativa; test: Test Example 1: effect on crop, application before weed generation in submerged conditions; settings: Seventeenth Table; for a: transplanted Oryza sativa (effect on crop grade): Application herbicide amount 320 g/ha; for a (transplanted Oryza sativa) effect on crop grade: application herbicide amount 320 g/ha
In short: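 Pre-emergence application to water surface of submerged pots (4 cm depth, alluvial soil) on sowing day, with 2.5-leaf rice transplanted; emulsion diluted to g/ha rates. Grown in greenhouse at 25–30 °C; 0–5 herbicidal/crop-effect score after three weeks.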

Cyperus difformis = test: Test Example 3: herbicidal effect by application to foliage (Wagner pot, water depth 0.1-0.5 cm); settings: Nineteenth Table; application to foliage; application herbicide amount 320 g/ha
In short: (§1)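 Seeds were sown in alluvial soil in Wagner pots, grown for 14 days at 25–30 °C, then sprayed uniformly on foliage with the emulsified compound diluted to a given rate per hectare. Injury was graded three weeks after treatment from 0 (≤5%) to 5 (≥90%).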

[2] = system: directly sowed Oryza sativa; test: Test Example 3: effect on crop by application to foliage (Wagner pot, water depth 0.1-0.5 cm); settings: Nineteenth Table; application to foliage; application herbicide amount 320 g/ha
In short: as §1

Compound: CN(CCC#N)c1nnc2c(C(=O)Nc3nnco3)ccc(C(F)(F)F)n12 [1-164]
- a: transplanted Oryza sativa (effect on crop grade) [1]: 3 (Herbicidal ratio of 40% or more and less than 70%)
- E (herbicidal effect grade) (Cyperus difformis): 4 (Herbicidal ratio of 70% or more and less than 90%)

Compound: Cc1nnc(NC(=O)c2ccc(C(F)(F)F)n3c(CC(F)(F)F)nnc23)o1 [1-162]
- a: transplanted Oryza sativa (effect on crop grade) [1]: 0 (Herbicidal ratio of 5% or less (almost no effect))
- E (herbicidal effect grade) (Cyperus difformis): 2 (Herbicidal ratio of 20% or more and less than 40%)

Compound: C=CCc1nnc2c(C(=O)Nc3nnco3)ccc(C(F)(F)F)n12 [1-158]
- a: transplanted Oryza sativa (effect on crop grade) [1]: 0 (Herbicidal ratio of 5% or less (almost no effect))
- E (herbicidal effect grade) (Cyperus difformis): 4 (Herbicidal ratio of 70% or more and less than 90%)

Compound: Cc1nnc(NC(=O)c2ccc(C(F)(F)F)n3c(CC(=O)NC(C)C)nnc23)o1 [1-061]
- E (herbicidal effect grade) (Cyperus difformis): 3 (Herbicidal ratio of 40% or more and less than 70%)
- b (effect on crop grade) [2]: 1 (Herbicidal ratio of 5% or more and less than 20%)

Compound: CCSc1nnc2c(C(=O)Nc3ncnn3C)ccc(C(F)(F)F)n12 [4-003]
- a (transplanted Oryza sativa) effect on crop grade [1]: 0 (Herbicidal ratio of 5% or less (almost no effect))
- E (herbicidal effect grade) (Cyperus difformis): 0 (Herbicidal ratio of 5% or less (almost no effect))

Compound: C#CCN(C)c1nnc2c(C(=O)Nc3nnco3)ccc(C(F)(F)F)n12 [1-163]
- a: transplanted Oryza sativa (effect on crop grade) [1]: 2 (Herbicidal ratio of 20% or more and less than 40%)
- E (herbicidal effect grade) (Cyperus difformis): 4 (Herbicidal ratio of 70% or more and less than 90%)

Compound: Cc1nnc(NC(=O)c2ccc(C(F)(F)F)n3c(CC#N)nnc23)o1 [1-168]
- b (effect on crop grade) [2]: 3 (Herbicidal ratio of 40% or more and less than 70%)

Compound: COCCc1nnc2c(C(=O)Nc3nnc(C)o3)ccc(C(F)(F)F)n12 [1-173]
- b (effect on crop grade) [2]: 2 (Herbicidal ratio of 20% or more and less than 40%)

Compound: Cn1nnnc1NC(=O)c1ccc(C(F)(F)F)n2c(SCc3ccc(Cl)nc3)nnc12 [2-097]
- a: transplanted Oryza sativa (effect on crop grade) [1]: 1 (Herbicidal ratio of 5% or more and less than 20%)
- E (herbicidal effect grade) (Cyperus difformis): 4 (Herbicidal ratio of 70% or more and less than 90%)

Compound: CCSc1nnc2c(C(=O)Nc3nnnn3CCOC)ccc(C(F)(F)F)n12 [2-098]
- a (transplanted Oryza sativa) effect on crop grade [1]: 2 (Herbicidal ratio of 20% or more and less than 40%)
- E (herbicidal effect grade) (Cyperus difformis): 5 (Herbicidal ratio of 90% or more (almost completely withered))

Compound: Cn1nnnc1NC(=O)c1ccc(C(F)(F)F)n2c(SC3CCCC3)nnc12 [2-096]
- a: transplanted Oryza sativa (effect on crop grade) [1]: 3 (Herbicidal ratio of 40% or more and less than 70%)
- E (herbicidal effect grade) (Cyperus difformis): 5 (Herbicidal ratio of 90% or more (almost completely withered))

Compound: C=CCN(C)c1nnc2c(C(=O)Nc3nnc(C)o3)ccc(C(F)(F)F)n12 [1-166]
- a: transplanted Oryza sativa (effect on crop grade) [1]: 0 (Herbicidal ratio of 5% or less (almost no effect))
- b (effect on crop grade) [2]: 2 (Herbicidal ratio of 20% or more and less than 40%)
